Reference: paper PMC4813465, “Selective Inhibition of the Mitochondrial Permeability Transition Pore Protects against Neurodegeneration in Experimental Multiple Sclerosis” (The Journal of Biological Chemistry, 2015)

What was measured:
[1] = tested on: experimental autoimmune encephalomyelitis; experiment: Relapsing-progressive EAE in ABH mice (neurological score, RotaRod, neurofilament ELISA); type: in vivo, mouse
Description: Mice were injected subcutaneously with 1 mg of freeze-dried mouse spinal cord homogenate (SCH) in Freund's adjuvant on days 0 and 7 as described previously ([71]). After the initial paralytic disease and subsequent remission, a relapse was induced by a further injection of SCH in Freund's incomplete adjuvant on day 28 to induce a relapse 7 days later ([71]). Studies were randomized, blinded, and powered as described previously ([71]). Neurological scores were graded as 0 = normal, 1 = limp tail, 2 = impaired righting reflex, 3 = hind limb paresis, 4 = complete hind limb paralysis, and 5 = moribund/death ([71]). Results are expressed as mean ± S.E. maximum or minimum neurological score and mean day of onset ± S.D. The clinical scores are presented as the mean daily neurological score ± S.E. Differences in clinical scores were assessed using non-parametric, Mann-Whitney U statistics ([71]). Motor control and coordination were assessed on an accelerating (4–40 rpm, accelerating at 6 rpm/25 s) RotaRod (ENV-575M, Med Associates Inc., St. Albans, VT) as described previously ([71]). This was performed 1 day before induction of relapse and at the termination of the experiment on day 45. RotaRod assessment was performed blinded to treatment. Animals were randomized to vehicle or treatment based on their RotaRod scores. Results are expressed as mean ± S.E. time that animals maintained rotarod activity. Differences in rota activity and quantitative neurofilament ELISA were assessed using Student's t test incorporating tests for equality of variance using Sigmaplot (Systat Software, Inc., San Jose, CA) ([71]).
At the end of the experiment, the spinal cord was removed, and an ELISA for heavy chain neurofilament on spinal cord was performed. Total nerve content of each spinal cord was estimated following calibration against neurofilament protein standards as described previously ([71], [72]).
Neurofilament level as a validated correlate of spinal cord axonal content as determined by histology was determined as follows. […] Tissues were snap-frozen and stored at −80 °C before homogenization. Tissues were homogenized in a glass homogenizer in 1 ml/100 mg of spinal cord tissue wet weight homogenization buffer (0.2 mM PMSF, 1 mM EDTA, 1 mM EGTA, 4 M urea, 10 mM Tris-HCl (Sigma), pH 7.2) plus 1:100 HALT protease inhibitor mixture (Thermo Fisher Scientific) and further homogenized by sonication twice for 10 s (Cole-Parmer Instruments, Vernon Hills, IL). Samples were spun down at 13,000 rpm in a bench top centrifuge (Eppendorf), and the supernatant was collected and stored at −80 °C before neurofilament determination. Samples were thawed on ice, and an ELISA for heavy chain neurofilament was performed. Briefly, a 96-well plate was coated overnight at 4 °C with capture antibody (1:5000; SMI35 anti-neurofilament H, Cambridge Bioscience, Cambridge, UK) in coating buffer (0.15 M Na2CO3, 0.35 M NaHCO3 (Sigma), pH 9.6). Following one wash in wash buffer (150 mM NaCl, 10 mM Tris-HCl, 0.1% Tween 20 (Sigma), pH 7.5), nonspecific binding was blocked by incubation with 5% bovine serum albumin (Sigma) in wash buffer for 1 h at room temperature. Following a wash step, samples and standards (porcine neurofilament heavy chain, Chemicon International) were diluted in wash buffer with 1% bovine serum albumin and incubated on the plate for 1 h at room temperature. Following five wash steps, the detector antibody was applied (1:1000 rabbit anti-NF200, Sigma) and incubated for a further 1 h at room temperature. The plate was washed five times, and the reporter antibody was applied (1:1000 swine anti-rabbit HRP conjugate, DAKO). Following a final five washes, tetramethylbenzidine substrate (Sigma) was applied, and color production was measured on a BioTek Synergy HT plate reader at 450 nm.

[2] = tested on: mitochondria of rat cortical neurons and isolated liver mitochondria; experiment: Mitochondrial functional parameters (membrane potential, oxygen consumption, ATP production) in cultured rat neurons and isolated mitochondria; type: cell-based
Description: Oxygen consumption was measured using Oroboros Oxygraph-2K as described previously ([62]). Prior to the assay, the Oxygraph chambers were calibrated with Miro5 buffer (0.5 mM EGTA, 3 mM MgCl2·6H2O, 60 mM potassium lactobionate, 20 mM taurine, 10 mM KH2PO4, 20 mM HEPES, 110 mM sucrose, 1 g/liter BSA (essentially fatty acid-free)). Isolated mitochondria were suspended in Miro5 (at 100–200 μg/ml) and loaded into the chamber together with substrates (malate, 2 mM; glutamate, 10 mM), and the O2 flow signal was allowed to stabilize to the basal respiration rate (∼10 min). […] Data were analyzed by subtracting the antimycin A respiration rate to give mitochondrial specific O2 flow and were then expressed as a percentage of the basal O2 flow.
Rat cortical neurons, cultured for 8–9 days, were incubated for 40 min at 37 °C with the cell-permeant cationic dye tetramethylrhodamine methyl ester (25 nM), and fluorescence was measured using the ImageXpress Micro XL system (Molecular Devices). […] The minimum value after the addition of compound (prior to the addition of FCCP) was taken, and this was expressed as a percentage (using the baseline as 100% and FCCP as 0%) and then normalized to DMSO (100%).
Freshly isolated mouse liver mitochondria were suspended in MSK buffer containing 10 μg/ml rhodamine 123 (dequench mode), at a concentration of 500 μg/ml, and plated in an opaque black 96-well plate. […]

[3] = tested on: T cell proliferative response in draining auricular lymph node; experiment: In vivo T cell proliferation, oxazolone contact hypersensitivity; design: species or system mouse
Description: The contact sensitizer 4-ethoxymethylene-2-phenyl-2-oxazolin-5-one (oxazolone; Sigma) was dissolved (25 mg/ml) in 4:1 acetone/olive oil. Mice (n = 3/group) received epicutaneous application of either 25 μl of 2.5% oxazolone or acetone/olive oil on the dorsum of the ear on day 0 ([70]). The draining auricular lymph nodes were removed 3 days later, and the induced proliferative response was assessed as described previously. Briefly, 5 × 10^5 cells/well were cultured in RPMI 1640 medium with glutamate (Gibco®, Invitrogen Ltd., Paisley UK), supplemented with 0.5 mM sodium, in round-bottomed 96-well plates overnight at 37 °C in a humidified atmosphere of 5% CO2 in the presence of 1 μCi of [^3H]thymidine (PerkinElmer Life Sciences) per well. DNA synthesis was estimated using β-scintillation counting as above. […] Results are expressed as mean ± S.E. thymidine incorporation counts/min.

[4] = biological target: Ca2+-mediated PT pore formation (Mus musculus, UniProt Q99KR7); settings: liver mitochondria
[5] = biological target: TRIM-CypA (Homo sapiens, UniProt P62937+Q6PIZ9)
Description: Viral supernatant was collected 48 h post-transfection and stored at −80 °C.
To generate CRFK cells stably expressing N-terminally HA-tagged TRIM-CypA from an EXN-based vector, murine leukemia virus (MLV) vector was prepared as above, using pMDG, CMVi MLV gag-pol expression vector, and γ-retroviral expression vector encoding a fusion protein comprising human CypA downstream of owl monkey TRIM5 RBCC (EXN-TRIM-CypA) ([67]). CRFK cells, which are null for TRIM5α activity ([68]), were then transduced with vector, followed by selection of cells in 1 mg/ml G418 (Invitrogen).
Infectivity was measured by flow cytometry 48 h postinfection.

[6] = tested on: splenocytes from MOG 35-55 immunized ABH mice; experiment: Myelin antigen (MOG 35-55)-induced T cell proliferation; type: cell-based, mouse; settings: MOG residues 35–55, 5 μg/ml
Description: ABH mice were injected subcutaneously in the flank with 100 μg of myelin oligodendrocyte glycoprotein (MOG) peptide residues 35–55 (Cambridge Research Biochemicals Ltd., Billingham, UK) emulsified in Freund's adjuvant containing 200 μg of Mycobacterium tuberculosis H37Ra (Difco, Becton Dickinson, Oxford, UK) on days 0 and 7 ([69]). Spleens were collected and prepared and analyzed as above except that mitogens were replaced with 5 μg/ml MOG 35–55 peptide, and cells were incubated for 72 h before the addition of tritiated thymidine.

[7] = tested on: rat cortical neurons; experiment: Mitochondrial membrane potential (TMRM) in rat cortical neurons; type: cell-based
Excerpt: The minimum value after the addition of compound (prior to the addition of FCCP) was taken, and this was expressed as a percentage (using the baseline as 100% and FCCP as 0%) and then normalized to DMSO (100%).

[8] = biological target: CypA (Homo sapiens, UniProt P62937); experiment: Fluorescence polarization cyclophilin binding assay, CypA; settings: probe 45 nM, enzyme 40 nM
Description: Fluorescence polarization (FP) is inversely related to the molecular rotation of the fluorophore. Fluorophores linked to small molecules tumble faster and emit less polarized fluorescence than fluorophore-small molecules bound to proteins. FP is a convenient technique to measure affinity of ligands to cyclophilins ([59], [60]).
(§1) Titration of a single probe concentration against different enzyme concentrations was used to determine the dissociation constant (Kd). From this we also determined the enzyme concentration that would give a high enough polarization signal to measure binding affinities.
(§2) At least three replicates were used for each experiment. The percentage of DMSO in the total solution should remain lower than 1%. […] Measurements were taken after gain adjustment of control sample and 30-min incubation with a xenon flash light with filter settings for 485-nm excitation and 520-nm emission.

[9] = biological target: K133I CypD (Homo sapiens, UniProt P30405, K175I); experiment: Fluorescence polarization cyclophilin binding assay, CypD; settings: probe 45 nM, enzyme 40 nM
Description: as §1, §2

[10] = before treatment (baseline of the JW47 group)

Chain of Ca2+-mediated PT pore formation (Q99KR7 30-206): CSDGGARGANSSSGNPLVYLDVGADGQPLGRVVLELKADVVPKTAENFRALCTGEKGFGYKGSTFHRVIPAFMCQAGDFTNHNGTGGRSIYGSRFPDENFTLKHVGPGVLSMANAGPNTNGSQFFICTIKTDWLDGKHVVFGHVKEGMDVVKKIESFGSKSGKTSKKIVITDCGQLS
Chain of CypA (P62937 whole entry, species assumed): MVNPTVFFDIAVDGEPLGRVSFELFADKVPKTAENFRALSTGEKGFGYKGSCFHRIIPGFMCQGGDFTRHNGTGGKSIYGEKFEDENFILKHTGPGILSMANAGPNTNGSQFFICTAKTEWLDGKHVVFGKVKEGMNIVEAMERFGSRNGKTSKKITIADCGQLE
Chain of TRIM-CypA (P62937 2-165, one chain of several): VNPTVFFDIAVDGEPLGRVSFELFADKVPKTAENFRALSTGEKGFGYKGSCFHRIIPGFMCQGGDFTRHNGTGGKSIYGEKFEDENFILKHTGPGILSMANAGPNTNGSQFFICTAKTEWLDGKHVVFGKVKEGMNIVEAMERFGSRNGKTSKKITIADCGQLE
Chain of K133I CypD (P30405 43-207 K175I): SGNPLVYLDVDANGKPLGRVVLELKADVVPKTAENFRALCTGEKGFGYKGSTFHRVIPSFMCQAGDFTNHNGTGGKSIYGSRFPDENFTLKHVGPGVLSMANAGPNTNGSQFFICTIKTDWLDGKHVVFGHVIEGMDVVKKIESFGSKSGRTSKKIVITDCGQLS

| Compound | incidence of disease (relapse) ([1]; 1 mg/kg intraperitoneally daily from day 33) | onset of induced relapse ([1]; 1 mg/kg intraperitoneally daily, SCH injection day 28, mean ± S.D.) [days] | rotorod activity during the second remission after relapse ([1]; 1 mg/kg intraperitoneally daily, day 45) [s] | minimal neurological score during the second remission ([1]; 1 mg/kg intraperitoneally daily, p < 0.001 vs vehicle) | maximal severity disease score ([1]; 1 mg/kg intraperitoneally daily, score 0–5, mean ± S.E.) | loss of nerves and axons within the spinal cord, neurofilament ELISA ([1]; 1 mg/kg intraperitoneally daily, vs vehicle) | minimal clinical score during the first remission [1, 10] | rotorod activity on day 27 during the first remission [1, 10] [s] | concentration up to which mitochondrial membrane potential, oxygen consumption and ATP production were not affected [2] | effect on T cell response, contact hypersensitivity model ([3]; 0.1 mg/kg intraperitoneally daily) | effect on T cell response, contact hypersensitivity model ([3]; 1 mg/kg intraperitoneally daily) | effect on T cell response, contact hypersensitivity model ([3]; 10 mg/kg intraperitoneally daily) | effect on CRC, mitochondria from WT mice [4] | rescue of HIV-1 infectivity in TRIM-CypA cells [5] | immunosuppressive activity in antigen-driven proliferation assay [6] | effect on mitochondria in cortical neurons ([7]; 40 nM) | effect on mitochondria in cortical neurons ([7]; 1 μM) | concentration that inhibited neuronal mitochondrial membrane potential ([7]; rat cortical neurons) [µM] | Ki [8] [µM] | Ki [9] [µM] |
| --- | --- | --- | --- | --- | --- | --- | --- | --- | --- | --- | --- | --- | --- | --- | --- | --- | --- | --- | --- | --- |
| CC[C@@H]1NC(=O)[C@H]([C@H](O)[C@H](C)C/C=C/CCC[n+]2cccc3ccccc32)N(C)C(=O)[C@H](C(C)C)N(C)C(=O)[C@H](CC(C)C)N(C)C(=O)[C@H](CC(C)C)N(C)C(=O)[C@@H](C)NC(=O)[C@H](C)NC(=O)[C@H](CC(C)C)N(C)C(=O)[C@H](C(C)C)NC(=O)[C@H](CC(C)C)N(C)C(=O)CN(C)C1=O [JW47, [Gly-(1S,2R,E)-8-quinolinium-1-hydroxy-2-methyloct-4-ene]^1 CsA] | 14 of 14 | 34.5 ± 0.7 | 135.0 ± 42.9 | 1.4 ± 0.3 | 3.9 ± 0.1 | lost significantly (p < 0.01) fewer nerves | 0.6 ± 0.1 | 168.8 ± 21.8 | up to 200 nM | no effect | no effect | inhibited the T cell response | significantly increased | no activity | markedly less immunosuppressive activity compared with CsA | not affected | significantly depolarized | 1 |  |  |
| C/C=C/C[C@@H](C)[C@@H](O)[C@H]1C(=O)N[C@@H](CC)C(=O)N(C)[C@H](Cc2ccc(C(=O)O)cc2)C(=O)N(C)[C@@H](CC(C)C)C(=O)N[C@@H](C(C)C)C(=O)N(C)[C@@H](CC(C)C)C(=O)N[C@@H](C)C(=O)N[C@H](C)C(=O)N(C)[C@@H](CC(C)C)C(=O)N(C)[C@@H](CC(C)C)C(=O)N(C)[C@@H](C(C)C)C(=O)N1C [SmBzCsA] |  |  |  |  |  |  |  |  |  |  |  |  |  |  |  |  |  |  | 0.236 ± 0.0084 | 0.202 ± 0.0141 |
